According to patent US11945881B2, “Neoantigens expressed in ovarian cancer and their uses” (Janssen Biotech, Inc., priority 2020, dated 2024):

B1: RDLQCPKKTQTPQAQSRLESERKKNTLTWLVPTPWDWRQWSTAPSRGLVWPPPPVDYELWKSS (peptide)
chain: RDLQCPKKTQTPQAQSRLESERKKNTLTWLVPTPWDWRQWSTAPSRGLVWPPPPVDYELWKSS
notes: neoantigen, alternative splicing of LRRC75B
B2: HQYIVVQDIHTETQHSALGAQPADSIPPFLQHTLQHLACPSLELPGNEQARREKRRRDDAFSDSL (peptide)
chain: HQYIVVQDIHTETQHSALGAQPADSIPPFLQHTLQHLACPSLELPGNEQARREKRRRDDAFSDSL
notes: neoantigen, alternative splicing of SRGAP3
B3: ARLRELRQCGGGRGKRGQGWGVRDETITGRPAVLGSPFLSPALAPPSRLMGDLWDGQSAGWSPGSPASPFCGGW (peptide)
chain: ARLRELRQCGGGRGKRGQGWGVRDETITGRPAVLGSPFLSPALAPPSRLMGDLWDGQSAGWSPGSPASPFCGGW
notes: neoantigen, alternative splicing of HSF4
B4: LKQDVRSGGPGARQLRGGLLRQAAPPGRRTRPFPHRARLHTALPTARLPGGPAAASRPAFRAAPRESGASVPGPSASPG (peptide)
chain: LKQDVRSGGPGARQLRGGLLRQAAPPGRRTRPFPHRARLHTALPTARLPGGPAAASRPAFRAAPRESGASVPGPSASPG
notes: neoantigen, alternative splicing of IL17RC
B5: HFVRSQDKGMVWTPEPSALPRTPRRHPGLSLCSQWGGLRVGPPAARPGWSLAHVLRVTLLQFHPNPGKETQKKQRCPKEDPSRIWRA (peptide)
chain: HFVRSQDKGMVWTPEPSALPRTPRRHPGLSLCSQWGGLRVGPPAARPGWSLAHVLRVTLLQFHPNPGKETQKKQRCPKEDPSRIWRA
notes: neoantigen, alternative splicing of RUFY4

Columns and labels:
CD8+ T cells = test: exogenous autologous normal donor restimulation assay, TNFα/IFNγ double positive CD8+ T cells by flow cytometry; format: cell-based, human; details: for Fold change (CD8+) vs. DMSO: maximum CD8+ T-cell response (TNFα and IFNγ); for Fold change (CD8+) vs. DMSO / Frequency (TNFα + IFNγ + CD8 T cells): donor independent, peptide pool 10 μg/mL, healthy donors; for Frequency (TNFα + IFNγ + CD8 T cells): maximum CD8+ T-cell response; for Immunogenic (yes/no): positive if CD8+ and/or CD4+ double positive TNFα/IFNγ frequency >=3-fold over DMSO and at least 0.01%
CD4+ T cells = test: exogenous autologous normal donor restimulation assay, TNFα/IFNγ double positive CD4+ T cells by flow cytometry; format: cell-based, human; details: donor independent, peptide pool 10 μg/mL, healthy donors; for Fold change (CD4+) vs. DMSO: maximum CD4+ T-cell response (TNFα and IFNγ); for Frequency (TNFα + IFNγ + CD4 T cells): maximum CD4+ T-cell response

Molecule	Fold change (CD8+) vs. DMSO (CD8+ T cells) [fold]	Frequency (TNFα + IFNγ + CD8 T cells) (CD8+ T cells) [%]	Immunogenic (yes/no) (CD8+ T cells)	Fold change (CD4+) vs. DMSO (CD4+ T cells) [fold]	Frequency (TNFα + IFNγ + CD4 T cells) (CD4+ T cells) [%]
VLTVTSTDQEYLDLSAP [AS44, neoantigen, alternative splicing of FGFR3]	85.94	0.33	Yes	13.45	0.067
VQKLKNARSLNLEDQI [AS83, neoantigen, alternative splicing of NUF2]	10.83	0.14	Yes	71.14	0.061
WSQDLQEGFSAPSRISAWFGPP [AS17, neoantigen, alternative splicing of KRT8]	169.53	0.79	Yes	29.97	0.41
YCKNDFFRSLPCHLL [AS16, neoantigen, alternative splicing of LHX1]	2.88	0.062	Yes	5.43	0.011
YGNDQWLQMRKWRHRE [FUS13, neoantigen, gene fusion MFGE8->HAPLN3]	5.12	0.11	yes	3.35	0.12
B1	143.98	1.28	Yes	10.84	0.047
B2	14.89	0.16	Yes	12.03	0.078
B3	66.2	0.62	Yes	6.63	0.043
B4	25.75	0.36	Yes	10.73	0.12
B5	69.96	1.87	Yes	279.88	0.28
